Measurements reported in patent publication US20220289794A1, “SYNTHETIC ANTIMICROBIAL PEPTIDES” (priority 2019, published 2022).
Values after ≈ are worked out from the molar mass of the structure shown. Read-outs that look alike come from different tables or passages of the source. Non-standard residues stand in square brackets, D forms with d. Residues, ends and D or L forms follow the SMILES beside them. dDip = N[C@@H](C(=O)O)C(c1ccccc1)c1ccccc1; 2Nal = N[C@@H](Cc1ccc2ccccc2c1)C(=O)O; d2Nal = N[C@H](Cc1ccc2ccccc2c1)C(=O)O

Experiments:
[1] = system: Pseudomonas aeruginosa (ATCC 27883)
in vitro = conditions: human, fresh human red blood cells (washed), pH 7.4
S. aureus ATCC 29213 = conditions: ATCC 29213
[2] = system: Escherichia coli (ATCC 25922); conditions: ATCC 25922
[3] = system: Methicillin-resistant Staphylococcus aureus MRSA (ATCC BAA-1556); conditions: ATCC BAA-1556

| Structure (SMILES) | MIC P. aeruginosa ATCC 27883 ([1]; P. aeruginosa ATCC 27883) | HC50 at 0.5 h (in vitro) | MIC S. aureus ATCC 29213 (S. aureus ATCC 29213) | MIC E. coli ATCC 25922 [2] | MIC MRSA ATCC BAA-1556 [3] | MIC P. aeruginosa ATCC 27883 ([1]; ATCC 27883) |
| --- | --- | --- | --- | --- | --- | --- |
| N=C(N)NCCC[C@H]1NC(=O)[C@@H](CCCNC(=N)N)NC(=O)[C@@H](CCCNC(=N)N)NC(=O)[C@@H](CCCNC(=N)N)NC(=O)[C@@H](Cc2ccc3ccccc3c2)NC(=O)[C@@H](Cc2ccc3ccccc3c2)NC(=O)[C@H](Cc2c[nH]c3ccccc23)NC1=O [IFX-109, c[arg-arg-arg-arg-Trp-naI-naI]] (cyclo(W[d2Nal][d2Nal][dR][dR][dR][dR])) | 12.5 µg/mL (≈ 10.4 µM) | 190 µg/mL | 3.1 µg/mL (≈ 2.57 µM) | 12.5 µg/mL (≈ 10.4 µM) | 1.5 µg/mL (≈ 1.24 µM) | – |
| N=C(N)NCCC[C@@H]1NC(=O)[C@H](CCCNC(=N)N)NC(=O)[C@H](CCCNC(=N)N)NC(=O)[C@@H](Cc2ccc3ccccc3c2)NC(=O)[C@@H](Cc2ccc3ccccc3c2)NC(=O)[C@H](Cc2c[nH]c3ccccc23)NC(=O)[C@H](CCCNC(=N)N)NC1=O [IFX-112, c[Arg-Arg-Arg-Arg-Trp-naI-naI]] (cyclo(RRRRW[d2Nal][d2Nal])) | 12.5 µg/mL (≈ 10.4 µM) | 295 µg/mL | 3.1 µg/mL (≈ 2.57 µM) | 12.5 µg/mL (≈ 10.4 µM) | 1.5 µg/mL (≈ 1.24 µM) | – |
| N=C(N)NCCC[C@H]1NC(=O)[C@H](Cc2ccc3ccccc3c2)NC(=O)[C@H](Cc2ccc3ccccc3c2)NC(=O)[C@@H](Cc2c[nH]c3ccccc23)NC(=O)[C@@H](CCCNC(=N)N)NC(=O)[C@@H](CCCNC(=N)N)NC(=O)[C@@H](CCCNC(=N)N)NC1=O [IFX-122, c[arg-arg-arg-arg-trp-NaI-NaI]] (cyclo([2Nal][2Nal][dR][dR][dR][dR][dW])) | – | 220 µg/mL | 3.1 µg/mL (≈ 2.57 µM) | 32 µg/mL (≈ 26.5 µM) | 3.1 µg/mL (≈ 2.57 µM) | 32 µg/mL (≈ 26.5 µM) |
| N=C(N)NCCC[C@H]1NC(=O)[C@@H](CCCNC(=N)N)NC(=O)[C@@H](CCCNC(=N)N)NC(=O)[C@@H](Cc2ccc3ccccc3c2)NC(=O)[C@@H](Cc2ccc3ccccc3c2)NC(=O)[C@@H](Cc2c[nH]c3ccccc23)NC(=O)[C@@H](CCCNC(=N)N)NC1=O [IFX-115, c[arg-arg-arg-arg-trp-naI-naI]] (cyclo([dR][dR][dR][dR][dW][d2Nal][d2Nal])) | – | 360 µg/mL | 3.1 µg/mL (≈ 2.57 µM) | 12.5 µg/mL (≈ 10.4 µM) | 3.1 µg/mL (≈ 2.57 µM) | 25 µg/mL (≈ 20.7 µM) |
| N=C(N)NCCC[C@H](NC(=O)[C@@H](CCCNC(=N)N)NC(=O)[C@@H](N)CCCNC(=N)N)C(=O)N[C@H](CCCNC(=N)N)C(=O)N[C@@H](C(=O)N[C@@H](C(=O)N[C@@H](C(=O)O)C(c1ccccc1)c1ccccc1)C(c1ccccc1)c1ccccc1)C(c1ccccc1)c1ccccc1 [IFX-070-1] (H-R[dR]R[dR][dDip][dDip][dDip]-OH) | – | 380 µg/mL | 3.1 µg/mL (≈ 2.36 µM) | 6.2 µg/mL (≈ 4.72 µM) | 3.1 µg/mL (≈ 2.36 µM) | 12.5 µg/mL (≈ 9.52 µM) |
| N=C(N)NCCC[C@@H](N)C(=O)N[C@@H](CCCNC(=N)N)C(=O)N[C@H](CCCNC(=N)N)C(=O)N[C@@H](CCCNC(=N)N)C(=O)N[C@@H](Cc1c[nH]c2ccccc12)C(=O)N[C@H](Cc1ccc2ccccc2c1)C(=O)N[C@H](Cc1ccc2ccccc2c1)C(=O)O [IFX-110-1] (H-[dR]R[dR]RW[d2Nal][d2Nal]-OH) | – | 330 µg/mL | 3.1 µg/mL (≈ 2.53 µM) | 25 µg/mL (≈ 20.4 µM) | 3.1 µg/mL (≈ 2.53 µM) | 25 µg/mL (≈ 20.4 µM) |
| N=C(N)NCCC[C@@H]1NC(=O)[C@H](CCCNC(=N)N)NC(=O)[C@@H](CCCNC(=N)N)NC(=O)[C@@H](CCCNC(=N)N)NC(=O)[C@@H](Cc2ccc3ccccc3c2)NC(=O)[C@@H](Cc2ccc3ccccc3c2)NC(=O)[C@H](Cc2c[nH]c3ccccc23)NC1=O [IFX-117, c[arg-arg-Arg-Arg-Trp-naI-naI]] (cyclo([dR][dR]RRW[d2Nal][d2Nal])) | – | 190 µg/mL | – | 32 µg/mL (≈ 26.5 µM) | – | 32 µg/mL (≈ 26.5 µM) |
| N=C(N)NCCC[C@@H]1NC(=O)[C@@H](CCCNC(=N)N)NC(=O)[C@H](CCCNC(=N)N)NC(=O)[C@@H](C(c2ccccc2)c2ccccc2)NC(=O)[C@@H](C(c2ccccc2)c2ccccc2)NC(=O)[C@@H](C(c2ccccc2)c2ccccc2)NC(=O)[C@@H](CCCNC(=N)N)NC1=O [IFX-070, c[Arg-arg-Arg-arg-dip-dip-dip]] (cyclo(R[dR]R[dR][dDip][dDip][dDip])) | – | 340 µg/mL | 3.1 µg/mL (≈ 2.39 µM) | – | 1.5 µg/mL (≈ 1.16 µM) | 12.5 µg/mL (≈ 9.66 µM) |
| N=C(N)NCCC[C@@H]1NC(=O)[C@H](Cc2ccc3ccccc3c2)NC(=O)[C@H](Cc2ccc3ccccc3c2)NC(=O)[C@@H](Cc2c[nH]c3ccccc23)NC(=O)[C@@H](CCCNC(=N)N)NC(=O)[C@@H](CCCNC(=N)N)NC(=O)[C@H](CCCNC(=N)N)NC1=O [IFX-120, c[Arg-Arg-arg-arg-trp-NaI-NaI]] (cyclo(RR[dR][dR][dW][2Nal][2Nal])) | – | 195 µg/mL | – | 32 µg/mL (≈ 26.5 µM) | – | 32 µg/mL (≈ 26.5 µM) |
| N=C(N)NCCC[C@@H]1NC(=O)[C@@H](CCCNC(=N)N)NC(=O)[C@H](CCCNC(=N)N)NC(=O)[C@@H](Cc2ccc3ccccc3c2)NC(=O)[C@@H](Cc2ccc3ccccc3c2)NC(=O)[C@@H](Cc2ccc3ccccc3c2)NC(=O)[C@@H](CCCNC(=N)N)NC1=O [IFX-084, c[Arg-arg-Arg-arg-naI-naI-naI]] (cyclo(R[dR]R[dR][d2Nal][d2Nal][d2Nal])) | – | 400 µg/mL | 3.1 µg/mL (≈ 2.55 µM) | – | 1.5 µg/mL (≈ 1.23 µM) | 12.5 µg/mL (≈ 10.3 µM) |
| N=C(N)NCCC[C@@H]1NC(=O)[C@H](CCCNC(=N)N)NC(=O)[C@@H](Cc2ccc3ccccc3c2)NC(=O)[C@@H](Cc2ccc3ccccc3c2)NC(=O)[C@@H](Cc2c[nH]c3ccccc23)NC(=O)[C@@H](CCCNC(=N)N)NC(=O)[C@@H](CCCNC(=N)N)NC1=O [IFX-118, c[Arg-Arg-arg-arg-trp-naI-naI]] (cyclo(RR[dR][dR][dW][d2Nal][d2Nal])) | – | 210 µg/mL | – | 16 µg/mL (≈ 13.3 µM) | 3.1 µg/mL (≈ 2.57 µM) | 16 µg/mL (≈ 13.3 µM) |
| N=C(N)NCCC[C@@H]1NC(=O)[C@H](CCCNC(=N)N)NC(=O)[C@@H](Cc2ccc3ccccc3c2)NC(=O)[C@@H](Cc2ccc3ccccc3c2)NC(=O)[C@H](Cc2c[nH]c3ccccc23)NC(=O)[C@@H](CCCNC(=N)N)NC(=O)[C@@H](CCCNC(=N)N)NC1=O [IFX-116, c[Arg-Arg-arg-arg-Trp-naI-naI]] (cyclo(RR[dR][dR]W[d2Nal][d2Nal])) | – | 480 µg/mL | – | 32 µg/mL (≈ 26.5 µM) | – | 32 µg/mL (≈ 26.5 µM) |
| N=C(N)NCCC[C@@H]1NC(=O)[C@H](CCCNC(=N)N)NC(=O)[C@@H](CCCNC(=N)N)NC(=O)[C@@H](CCCNC(=N)N)NC(=O)[C@H](Cc2ccc3ccccc3c2)NC(=O)[C@H](Cc2ccc3ccccc3c2)NC(=O)[C@@H](Cc2c[nH]c3ccccc23)NC1=O [IFX-121, c[arg-arg-Arg-Arg-trp-NaI-NaI]] (cyclo([dR][dR]RR[dW][2Nal][2Nal])) | – | 425 µg/mL | – | 32 µg/mL (≈ 26.5 µM) | 6.2 µg/mL (≈ 5.14 µM) | 32 µg/mL (≈ 26.5 µM) |
| N=C(N)NCCC[C@H]1NC(=O)[C@@H](CCCNC(=N)N)NC(=O)[C@@H](CCCNC(=N)N)NC(=O)[C@@H](Cc2ccc3ccccc3c2)NC(=O)[C@@H](Cc2c[nH]c3ccccc23)NC(=O)[C@@H](Cc2ccc3ccccc3c2)NC(=O)[C@@H](CCCNC(=N)N)NC1=O [IFX-142, c[arg-arg-arg-arg-naI-trp-naI]] (cyclo([dR][dR][dR][dR][d2Nal][dW][d2Nal])) | – | 285 µg/mL | – | 16 µg/mL (≈ 13.3 µM) | 3.1 µg/mL (≈ 2.57 µM) | 32 µg/mL (≈ 26.5 µM) |
| N=C(N)NCCC[C@@H]1NC(=O)[C@H](CCCNC(=N)N)NC(=O)[C@@H](CCCNC(=N)N)NC(=O)[C@@H](CCCNC(=N)N)NC(=O)[C@@H](Cc2ccc3ccccc3c2)NC(=O)[C@@H](Cc2ccc3ccccc3c2)NC(=O)[C@@H](Cc2c[nH]c3ccccc23)NC1=O [IFX-119, c[arg-arg-Arg-Arg-trp-naI-naI]] (cyclo([dR][dR]RR[dW][d2Nal][d2Nal])) | – | 200 µg/mL | – | 16 µg/mL (≈ 13.3 µM) | – | 32 µg/mL (≈ 26.5 µM) |
| N=C(N)NCCC[C@@H]1NC(=O)[C@@H](CCCNC(=N)N)NC(=O)[C@H](CCCNC(=N)N)NC(=O)[C@@H](CCCNC(=N)N)NC(=O)[C@@H](Cc2ccc3ccccc3c2)NC(=O)[C@H](Cc2ccc3ccccc3c2)NC(=O)[C@@H](Cc2ccc3ccccc3c2)NC1=O [IFX-083, c[arg-Arg-arg-Arg-naI-NaI-naI]] (cyclo([dR]R[dR]R[d2Nal][2Nal][d2Nal])) | – | 170 µg/mL | – | – | – | 12.5 µg/mL (≈ 10.3 µM) |
